# Assay results reported in patent US8178538B2, “Pyridazinones” (Hoffmann-La Roche Inc., priority 2008, dated 2012).
# Target: T1, PDE10A2 (Homo sapiens, UniProt Q9Y233)
# T1 construct: residues serine 449 to aspartate 789; His6 (H6) with thrombin cleavage site (N, cleaved yes); made in house; host or cells: E. coli BL21(DE3) pLysS
# Assay: PDE10A2 inhibition, Scintillation Proximity Assay (SPA)
# Type: biochemical
# Conditions: catalytic domain of human PDE10A2 (S449-D789), 0.25 nM enzyme, 50 nM cGMP + 50 nM [3H]-cGMP, 30 minutes at room temperature
# Method: The following tests were carried out in order to determine the activity of the compounds of the present invention. PDE10 activity of the compounds of the present invention is determined using a Scintillation Proximity Assay (SPA)-based method similar to the one previously described (Fawcett, L. et al., Proc Natl Acad Sci USA (2000) 97(7):3702-3707).
# PDE10A1 and PDE10A2 are two splice variants of PDE10A. There are these 2 splice variants known, which differ in the N-terminal part of the protein. The catalytic domains of PDE10A1 and PDE10A2 are identical. The assay for PDE10A2 described below is therefore also representative for PDE10A1 and also for PDE10A in general.
# The PDE10A2 assay was performed in a two step procedure in 96-well micro titer plates. The reaction mixture of 80 μl contained 20 mM HEPES/10 mM MgCl2/[…] (pH 7.5), 50 nM cGMP (Sigma) and 50 nM [^3H]-cGMP (GE Healthcare), 0.25 nM PDE10A2 with or without a specific test compound. A range of concentrations of the potential inhibitor was used to generate data for calculating the concentration of inhibitor resulting in 50% of the effect (e.g. IC50, the concentration of the competitor inhibiting PDE10A2 activity 50%). Non-specific activity was tested without the enzyme. The reaction was initiated by addition of the substrate solution (cGMP and [^3H]-cGMP) and allowed to progress for 30 minutes at room temperature. The reaction was terminated by transferring 50 μl of the reaction mixture into an OptiPlate (Perkin Elmer) containing 25 μl of YSi-SPA scintillation beads (GE Healthcare) in 18 mM zinc sulphate solution (stop reagent). After 1 h under shaking, the plate was centrifuged one minute at 1000 rpm to allow beads to settle. Afterwards, radioactive counts were measured on a Perkin Elmer TopCount Scintillation plate reader.
# The catalytic domain of human PDE10A2, residues serine 449 to aspartate 789, was amplified by PCR using cDNA (Origene) and the oligonucleotides 5′-GGGGACAAGTTT […]-3′ (SEQ ID NO. 1) (with AttB1 recombination site in bold and thrombin protease cleavage site in italics) and 5′-[…] GCTG-3′ (SEQ ID NO. 2) (with AttB2 recombination site in bold) which conferred Gateway recombination sites. The PCR product was used in a BP recombination reaction with pDONR221 to generate pENTR Thm-PDE10A2(S449-D789) which was DNA sequence verified and then used in an LR recombination reaction with a Gateway modified version of pET11a. The resulting expression vector, placT7.2H6-(gw1)-Thm-PDE10A2(S449-D789) was DNA sequence confirmed and transformed into E. coli strain BL21(DE3) pLysS and recombinant protein was produced in TB medium at 20° C. by induction to a final IPTG concentration of 0.5 mM at an optical density of 1.0 at 600 nm for 20 hours. About 30% of the protein was in the soluble fraction of the cell homogenate. The protein was purified using sequential chromatography on Ni-NTA and HiTrapQ/HiTrapS. After thrombin digest at room temperature a HiTrapChelating/HiTrap Benzamindin chromatography removed impurities, uncleaved protein and thrombin. Final purification of PDE10A2(S449-D789) was performed on a Superdex 75 size exclusion chromatography equilibrated with 25 mM HEPES pH 8.4, 0.15 M NaCl. The yield of pure protein was 2 mg/liter of culture volume is relatively low. The purity of the protein was >95%, monomeric and monodisperse as shown by SDS-PAGE, HPLC and analytical ultracentrifugation.
# T1 sequence (Q9Y233 715-1055): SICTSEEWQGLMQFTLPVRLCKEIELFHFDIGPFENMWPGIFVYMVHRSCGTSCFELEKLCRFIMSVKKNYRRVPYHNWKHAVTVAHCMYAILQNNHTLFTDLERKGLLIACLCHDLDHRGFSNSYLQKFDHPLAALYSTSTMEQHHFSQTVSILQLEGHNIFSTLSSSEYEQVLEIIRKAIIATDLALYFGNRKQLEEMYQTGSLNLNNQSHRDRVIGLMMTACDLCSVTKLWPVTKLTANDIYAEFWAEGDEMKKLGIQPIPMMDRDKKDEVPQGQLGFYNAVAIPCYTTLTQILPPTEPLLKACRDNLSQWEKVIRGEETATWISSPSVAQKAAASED
row,Compound,IC50 [nM]
1,"O=c1ccn(-c2cccc(OC(F)(F)F)c2)nc1-c1ccnn1-c1nccc2c1CCCC2 [Example 58, 3-[2-(5,6,7,8-Tetrahydro-isoquinolin-1-yl)-2H-pyrazol-3-yl]-1-(3-trifluoromethoxy-phenyl)-1H-pyridazin-4-one]",67
2,"O=c1ccn(-c2ccccc2)nc1-c1ccnn1-c1ccc2c(c1)OCO2 [Example 1, 3-(2-Benzo[1,3]dioxol-5-yl-2H-pyrazol-3-yl)-1-phenyl-1H-pyridazin-4-one]",63
3,"O=c1ccn(-c2ccc3c(c2)OC(F)(F)O3)nc1-c1ccnn1-c1ccc2c(c1)OCCO2 [Example 101, 1-(2,2-Difluoro-benzo[1,3]dioxol-5-yl)-3-[2-(2,3-dihydro-benzo[1,4]dioxin-6-yl)-2H-pyrazol-3-yl]-1H-pyridazin-4-one]",37
4,"O=c1ccn(-c2cccc(OC(F)(F)F)c2)nc1-c1ccnn1-c1ccc2c(c1)OCCO2 [Example 79, 3-[2-(2,3-Dihydro-benzo[1,4]dioxin-6-yl)-2H-pyrazol-3-yl]-1-(3-trifluoromethoxy-phenyl)-1H-pyridazin-4-one]",7
5,"O=c1ccn(-c2cccc(OC(F)(F)F)c2)nc1-c1ccnn1-c1cccc2ccccc12 [Example 80, 3-(2-Naphthalen-1-yl-2H-pyrazol-3-yl)-1-(3-trifluoromethoxy-phenyl)-1H-pyridazin-4-one]",3
6,"NC(=O)c1cccc(-n2nccc2-c2nn(-c3cccc(OC(F)(F)F)c3)ccc2=O)c1 [Example 43, 3-{5-[4-Oxo-1-(3-trifluoromethoxy-phenyl)-1,4-dihydro-pyridazin-3-yl]-pyrazol-1-yl}-benzamide]",888
7,"N#Cc1cccc(-n2nccc2-c2nn(-c3cccc4c3OCO4)ccc2=O)c1 [Example 114, 3-[5-(1-Benzo[1,3]dioxol-4-yl-4-oxo-1,4-dihydro-pyridazin-3-yl)-pyrazol-1-yl]-benzonitrile]",82
8,"O=c1ccn(-c2ccccc2)nc1-c1ccnn1-c1ccccc1F [Example 183, 3-[2-(2-Fluoro-phenyl)-2H-pyrazol-3-yl]-1-phenyl-1H-pyridazin-4-one]",47
9,"CS(=O)(=O)c1cccc(-n2ccc(=O)c(-c3ccnn3-c3cccc4c3OCO4)n2)c1 [Example 106, 3-(2-Benzo[1,3]dioxol-4-yl-2H-pyrazol-3-yl)-1-(3-methanesulfonyl-phenyl)-1H-pyridazin-4-one]",40
10,"CS(=O)(=O)c1cccc(-n2ccc(=O)c(-c3ccnn3-c3cccc4ccccc34)n2)c1 [Example 85, 1-(3-Methanesulfonyl-phenyl)-3-(2-naphthalen-1-yl-2H-pyrazol-3-yl)-1H-pyridazin-4-one]",2
11,"CS(=O)(=O)c1cccc(-n2ccc(=O)c(-c3ccnn3-c3cccc(Cl)c3)n2)c1 [Example 64, 3-[2-(3-Chloro-phenyl)-2H-pyrazol-3-yl]-1-(3-methanesulfonyl-phenyl)-1H-pyridazin-4-one]",39
12,"COc1ccc(-c2csc(-n3nccc3-c3nn(-c4cccc(S(C)(=O)=O)c4)ccc3=O)n2)c(F)c1 [Example 95, 3-{2-[4-(2-Fluoro-4-methoxy-phenyl)-thiazol-2-yl]-2H-pyrazol-3-yl}-1-(3-methanesulfonyl-phenyl)-1H-pyridazin-4-one]",1200
13,"CC(C)c1ccc(-n2nccc2-c2nn(-c3cccc(S(C)(=O)=O)c3)ccc2=O)cc1 [Example 88, 3-[2-(4-Isopropyl-phenyl)-2H-pyrazol-3-yl]-1-(3-methanesulfonyl-phenyl)-1H-pyridazin-4-one]",629
14,"Cc1cc(-n2nccc2-c2nn(-c3cccc(S(C)(=O)=O)c3)ccc2=O)ccn1 [Example 90, 1-(3-Methanesulfonyl-phenyl)-3-[2-(2-methyl-pyridin-4-yl)-2H-pyrazol-3-yl]-1H-pyridazin-4-one]",37
15,"O=c1ccn(-c2ccc(OCC(F)(F)F)cc2)nc1-c1ccnn1-c1ccnc2ccccc12 [Example 259, 3-(2-Quinolin-4-yl-2H-pyrazol-3-yl)-1-[4-(2,2,2-trifluoro-ethoxy)-phenyl]-1H-pyridazin-4-one]",1
16,"N#Cc1cccc(-n2nccc2-c2nn(-c3cccc4c3OC(F)(F)O4)ccc2=O)c1 [Example 129, 3-{5-[1-(2,2-Difluoro-benzo[1,3]dioxol-4-yl)-4-oxo-1,4-dihydro-pyridazin-3-yl]-pyrazol-1-yl}-benzonitrile]",80
17,"O=c1ccn(-c2ccc(OCC(F)(F)F)cc2)nc1-c1ccnn1-c1cccc(Cl)c1 [Example 257, 3-[2-(3-Chloro-phenyl)-2H-pyrazol-3-yl]-1-[4-(2,2,2-trifluoro-ethoxy)-phenyl]-1H-pyridazin-4-one]",3
18,"O=c1ccn(-c2ccc3c(c2)OC(F)(F)O3)nc1-c1ccnn1-c1ccccc1F [Example 174, 1-(2,2-Difluoro-benzo[1,3]dioxol-5-yl)-3-[2-(2-fluoro-phenyl)-2H-pyrazol-3-yl]-1H-pyridazin-4-one]",184

# Further compounds by falling IC50, results first:
row,IC50 [nM],Compound
1,1150,"O=C1CCC(c2ccc(-n3nccc3-c3nn(-c4cccc(OC(F)(F)F)c4)ccc3=O)cc2)=NN1 [Example 78, 3-{2-[4-(6-Oxo-1,4,5,6-tetrahydro-pyridazin-3-yl)-phenyl]-2H-pyrazol-3-yl}-1-(3-trifluoromethoxy-phenyl)-1H-pyridazin-4-one]"
2,143,"O=c1ccn(-c2ccc(OC(F)(F)F)cc2)nc1-c1ccnn1-c1ccncc1 [Example 35, 3-(2-Pyridin-4-2H-pyrazol-3-yl)-1-(4-trifluoromethoxy-phenyl)-1H-pyridazin-4-one]"
3,105,"O=c1ccn(-c2ccc(OC(F)F)cc2)nc1-c1ccnn1-c1cccc(F)c1 [Example 100, 1-(4-Difluoromethoxy-phenyl)-3-[2-(3-fluoro-phenyl)-2H-pyrazol-3-yl]-1H-pyridazin-4-one]"
4,71,"Cc1cc(-n2nccc2-c2nn(-c3cccc(S(=O)(=O)N(C)C)c3)ccc2=O)ccn1 [Example 133, N,N-Dimethyl-3-{3-[2-(2-methyl-pyridin-4-yl)-2H-pyrazol-3-yl]-4-oxo-4H-pyridazin-1-yl}-benzenesulfonamide]"
5,67,"CS(=O)(=O)c1ccc(-n2ccc(=O)c(-c3ccnn3-c3ccc(F)cc3)n2)cc1 [Example 153, 3-[2-(4-Fluoro-phenyl)-2H-pyrazol-3-yl]-1-(4-methanesulfonyl-phenyl)-1H-pyridazin-4-one]"
6,51,"O=c1ccn(-c2ccc(OC(F)F)cc2)nc1-c1ccnn1-c1cccc(OC(F)(F)F)c1 [Example 165, 1-(4-Difluoromethoxy-phenyl)-3-[2-(3-trifluoromethoxy-phenyl)-2H-pyrazol-3-yl]-1H-pyridazin-4-one]"
7,25,"CCc1cccc(-n2ccc(=O)c(-c3ccnn3-c3ccccc3)n2)c1 [Example 17, 1-(3-Ethyl-phenyl)-3-(2-phenyl-2H-pyrazol-3-yl)-1H-pyridazin-4-one]"
8,9,"O=c1ccn(-c2cccc(OC(F)(F)F)c2)nc1-c1ccnn1-c1cccc(Cl)c1 [Example 48, 3-[2-(3-Chloro-phenyl)-2H-pyrazol-3-yl]-1-(3-trifluoromethoxy-phenyl)-1H-pyridazin-4-one]"
9,5,"O=c1ccn(-c2ccc(OCC(F)(F)F)cc2)nc1-c1ccnn1-c1ccccc1F [Example 255, 3-[2-(2-Fluoro-phenyl)-2H-pyrazol-3-yl]-1-[4-(2,2,2-trifluoro-ethoxy)-phenyl]-1H-pyridazin-4-one]"
10,4,"O=c1ccn(-c2cccc(O)c2)nc1-c1ccnn1-c1ccc2c(c1)OCCO2 [Example 277, 3-[2-(2,3-Dihydro-benzo[1,4]dioxin-6-yl)-2H-pyrazol-3-yl]-1-(3-hydroxy-phenyl)-1H-pyridazin-4-one]"
